Laboratory results from US8293774B2, “Optically active (R)-aryloxypropionic acid amides and herbicidal composition comprising same” (Kyung Nong Corporation, priority 2007, dated 2012).

Experiments:
[1] = test system: GLXMA (Glycine max(L.) MERR, soy bean); test: Weed control test, foliage treatment (Test Example 1, Table 7); settings: in vivo
Method: (§1) Seeds of rice, wheat, soy bean, barley, corn, common sorgum, barnyard grass, large crabgrass, creek grass, green foxtail and fall panicum were placed in sandy loam in 600 cm^2 pots and covered with soil. After keeping the pots in a greenhouse at 20 to 30° C. allowing growth of the plants to the 3-leaf stage of the barnyard grass, 2,000 l/ha of an emulsion obtained by diluting with water a mixture of 1 part by weight of a test compound, 5 parts by weight of acetone and 1 part by weight of an emulsifying agent (Tween 80, Junsei) was applied to the surface of the foliage of the plants. The plant damage at 10 days and 20 days after the foliage treatment was visually evaluated from the level of 1 to 100% by comparison with the untreated control: […]

[2] = test system: HORVU (Hordeum vulgare L., barley); test: as above; settings: in vivo
Method: as §1

[3] = test system: ORYSA (Oryza sativa cv. Dongjin, rice); test: as above; settings: in vivo
Method: as §1

[4] = test system: TRZAW (Tritium aestivum L., wheat); test: as above; settings: in vivo
Method: as §1

[5] = test system: ARTHIS (Arthraxon hispidus (Thunb.) Makino, creek grass); test: as above; type: in vivo; settings: Arthraxon hispidus, foliar, read-out: Plant damage (herbicidal activity), visually evaluated, ARTHIS; for pest or weed control at 25 g/ha: 0.025 kg/ha; for pest or weed control at 100 g/ha: 0.1 kg/ha; for pest or weed control at 200 g/ha: 0.2 kg/ha
Method: as §1

[6] = test system: DIGSA (Digitaria Sanguinalis (L.) SCOP, large crabgrass); test: as above; type: in vivo; settings: Digitaria sanguinalis, foliar, read-out: Plant damage (herbicidal activity), visually evaluated, DIGSA; for pest or weed control at 25 g/ha: 0.025 kg/ha; for pest or weed control at 100 g/ha: 0.1 kg/ha; for pest or weed control at 200 g/ha: 0.2 kg/ha
Method: as §1

[7] = test system: ECHOG (Echinoch crus-galli Beauv. var. caudata Kitagawa, barnyard grass); test: as above; type: in vivo; settings: Echinochloa crus-galli, foliar, 3-leaf stage, read-out: Plant damage (herbicidal activity), visually evaluated, ECHOG; for pest or weed control at 25 g/ha: 0.025 kg/ha; for pest or weed control at 100 g/ha: 0.1 kg/ha; for pest or weed control at 200 g/ha: 0.2 kg/ha
Method: as §1

[8] = test system: PANDI (Panium dichotomiflorum Michx, fall panicum); test: as above; type: in vivo; settings: Panicum dichotomiflorum, foliar, read-out: Plant damage (herbicidal activity), visually evaluated, PANDI; for pest or weed control at 25 g/ha: 0.025 kg/ha; for pest or weed control at 100 g/ha: 0.1 kg/ha; for pest or weed control at 200 g/ha: 0.2 kg/ha
Method: as §1

[9] = test system: SETVIR (Setaria viridis (L.) Beauv, green foxtail); test: as above; type: in vivo; settings: Setaria viridis, foliar, read-out: Plant damage (herbicidal activity), visually evaluated, SETVIR; for pest or weed control at 25 g/ha: 0.025 kg/ha; for pest or weed control at 100 g/ha: 0.1 kg/ha; for pest or weed control at 200 g/ha: 0.2 kg/ha
Method: as §1

[10] = test system: SORBI (Andropogon sorghum, common sorgum); test: as above; type: in vivo; settings: Sorghum bicolor, foliar, read-out: Plant damage (herbicidal activity), visually evaluated, SORBI; for pest or weed control at 25 g/ha: 0.025 kg/ha; for pest or weed control at 100 g/ha: 0.1 kg/ha; for pest or weed control at 200 g/ha: 0.2 kg/ha
Method: as §1

[11] = test system: ZEAMX (Zea mays L., corn); test: as above; type: in vivo; settings: Zea mays, foliar, read-out: Plant damage (herbicidal activity), visually evaluated, ZEAMX; for plant injury at 25 g/ha: 0.025 kg/ha; for plant injury at 100 g/ha: 0.1 kg/ha; for plant injury at 200 g/ha: 0.2 kg/ha
Method: as §1

[12] = test system: Barnyard grass; test: Weed control test, 4-leaf stage plants (Test Example 1, Table 8); type: in vivo, Echinoch crus-galli Beauv. var. caudata Kitagawa
Text: as §1, with “[…],” for “After keeping the pots in a greenhouse at 20 to 30° C. allowing growth of the plants to the 3-leaf stage of the barnyard grass,”

Structure (SMILES) | Plant damage (herbicidal activity), visually evaluated, GLXMA [1] [%] | Plant damage (herbicidal activity), visually evaluated, HORVU [2] [%] | Plant damage (herbicidal activity), visually evaluated, TRZAW [4] [%] | pest or weed control at 25 g/ha [5] [%] | pest or weed control at 100 g/ha [5] [%] | pest or weed control at 200 g/ha [5] [%] | pest or weed control at 25 g/ha [6] [%] | pest or weed control at 100 g/ha [6] [%] | pest or weed control at 200 g/ha [6] [%] | pest or weed control at 25 g/ha [7] [%] | pest or weed control at 100 g/ha [7] [%] | pest or weed control at 200 g/ha [7] [%] | pest or weed control at 25 g/ha [8] [%] | pest or weed control at 100 g/ha [8] [%] | pest or weed control at 200 g/ha [8] [%] | pest or weed control at 25 g/ha [9] [%] | pest or weed control at 100 g/ha [9] [%] | pest or weed control at 200 g/ha [9] [%] | pest or weed control at 25 g/ha [10] [%] | pest or weed control at 100 g/ha [10] [%] | other results
Cc1cc(NC(=O)[C@@H](C)Oc2ccc(Oc3ccc(C#N)cc3F)cc2)n(C)n1 [Example 29, (R)-2-[4-(4-cyano-2-fluorophenoxy)phenoxy]propionic acid-N-(1,3-dimethyl-5-pyrazolyl)amide] | 0 | 0 | 0 | 0 | 0 | 10 | 0 | 20 | 90 | 20 | 70 | 90 | 0 | 0 | 10 | 0 | 0 | 20 | 0 | 20 | Plant damage (herbicidal activity), visually evaluated, ORYSA [3]: 0%; pest or weed control at 200 g/ha [10]: 50%; plant injury at 25 g/ha [11]: 0%; plant injury at 100 g/ha [11]: 5%; plant injury at 200 g/ha [11]: 30%
Cc1ccc(C=C(F)Oc2ccc(O[C@H](C)C(=O)Nc3ccccc3F)cc2)cc1 [Example 41, (R)-2-[4-(1-fluoro-2-(4-methylphenyl)vinyloxy)phenoxy]propionic acid-N-(2-fluorophenyl)amide] | 0 | 0 | 0 | 0 | 0 | 20 | 0 | 0 | 50 | 0 | 0 | 20 | 20 | 70 | 70 | 0 | 20 | 70 | 0 | 0 | Plant damage (herbicidal activity), visually evaluated, ORYSA [3]: 0%; pest or weed control at 200 g/ha [10]: 0%; plant injury at 25 g/ha [11]: 0%; plant injury at 100 g/ha [11]: 0%; plant injury at 200 g/ha [11]: 20%
Cc1ccnc(NC(=O)[C@@H](C)Oc2ccc(Oc3ccc(C#N)cc3F)cc2)c1 [Example 33, (R)-2-[4-(4-cyano-2-fluorophenoxy)phenoxy]propionic acid-N-(4-methyl-2-pyridinyl)amide] |  |  |  |  |  |  |  |  |  |  |  |  |  |  |  |  |  |  |  |  | Plant damage (herbicidal activity), visually evaluated, Barnyard grass ([12]; 0.025 kg/ha): 10%; Plant damage (herbicidal activity), visually evaluated, Barnyard grass ([12]; 0.05 kg/ha): 40%; Plant damage (herbicidal activity), visually evaluated, Barnyard grass ([12]; 0.1 kg/ha): 100%; Plant damage (herbicidal activity), visually evaluated, Barnyard grass ([12]; 0.4 kg/ha): 100%
C[C@@H](Oc1ccc(Oc2ccc(C#N)cc2F)cc1)C(=O)Nc1nc2ccc(F)cc2s1 [Example 23, (R)-2-[4-(4-cyano-2-fluorophenoxy)phenoxy]propionic acid-N-(6-fluoro-2-benzothiazolyl)amide] | 0 | 0 | 0 | 0 | 0 | 10 | 0 | 20 | 20 | 20 | 50 | 50 | 0 | 0 | 10 | 0 | 0 | 20 | 0 | 20 | Plant damage (herbicidal activity), visually evaluated, ORYSA [3]: 0%; pest or weed control at 200 g/ha [10]: 20%; plant injury at 25 g/ha [11]: 10%; plant injury at 100 g/ha [11]: 90%; plant injury at 200 g/ha [11]: 90%
COc1ccc2nc(NC(=O)[C@@H](C)Oc3ccc(Oc4ccc(C#N)cc4F)cc3)sc2c1 [Example 27, (R)-2-[4-(4-cyano-2-fluorophenoxy)phenoxy]propionic acid-N-(6-methoxy-2-benzothiazolyl)amide] | 0 | 0 | 0 | 0 | 0 | 10 | 0 | 20 | 90 | 20 | 70 | 90 | 0 | 0 | 10 | 0 | 0 | 20 | 0 | 20 | pest or weed control at 200 g/ha [10]: 20%; plant injury at 25 g/ha [11]: 10%; plant injury at 100 g/ha [11]: 90%; plant injury at 200 g/ha [11]: 90%
C[C@@H](Oc1ccc(OC(F)=Cc2ccc(F)cc2)cc1)C(=O)Nc1nc2cc(Cl)ccc2o1 [Example 52, (R)-2-[4-(1-fluoro-2-(4-fluorophenyl)vinyloxy)phenoxy]propionic acid-N-(5-chloro-2-benzoxazolyl)amide] | 0 | 0 | 0 | 0 | 0 | 0 | 0 | 0 | 10 | 0 | 0 | 20 | 0 | 0 | 0 | 0 | 0 | 10 | 0 | 0 | pest or weed control at 200 g/ha [10]: 0%; plant injury at 25 g/ha [11]: 10%; plant injury at 100 g/ha [11]: 30%; plant injury at 200 g/ha [11]: 30%
